Data: patent publication US5484940A, “Substituted 3-indolyl-5-pyrazolone compounds” (priority 1994, dated 1996)

How the values were obtained:
rat cortical neurons = assay: Inhibition of toxicity of β-amyloid peptide to rat neuronal cells (alamarBlue); assay type: cell-based; settings: 10 to 20 μM β-amyloid peptide, 2-3 days; on average where more than one duplicate experiment; compound concentration not stated
Experimental: (§1) The purpose of this test is to determine the effect of 3-indolyl-5-pyrazolone compounds on the toxicity of β-amyloid peptide to neuronal cells.
Primary rat cortical cultures were established from 18 day rat fetuses. Cortical tissue was dissociated by incubation in a trypsin/EDTA solution (0.05% trypsin+0.53 mM EDTA in HBSS; GIBCO Laboratories, Grand Island, N.Y., USA) for 20 minutes at 37° C. The trypsin was then inactivated by resuspending the cells in serum-containing medium (DMEM/FBS): Dulbecco's Modified Eagles' Medium (DMEM) containing 4.5 g/L glucose, 1 mM sodium pyruvate, 1 mM glutamine, 100 Units/mL penicillin, 100 μg/mL streptomycin, and supplemented with 10% heat-inactivated fetal bovine serum (GIBCO Laboratories, Grand Island, N.Y., USA). Cells were then pelleted by centrifugation and resuspended in a chemically-defined medium (DMEM/B27: DMEM containing B27 supplement; GIBCO Laboratories, Grand Island, N.Y., USA) in place of FBS. Polyethyleneimine (PEI; Sigma Chemical Company, St. Louis, Mo., USA)-coated 6.4 mm (96-well) dishes were timed once with DMEM/FBS, and then seeded at 0.75 to 1.25×10^5 cells per well in 0.1 mL DMEM/B27. Cultures were maintained in a H2 O-saturated incubator with an atmosphere of 90% air/10% CO2 at 37° C. Cell viability was visually assessed by phase contrast microscopy and quantified by measuring the reduction of alamarBlue™ (Alamar biosciences, Inc., Sacramento, Calif., USA) as described below. Serum replacement with B27 supplement yields nearly pure neuronal cultures as judged by immunocytochemistry for glial fibrillary acidic protein and neuron-specific enolase (Brewer, et al.^20)
(§2) β-amyloid peptide stock solutions were prepared as 1 mM stocks in sterile, doubly distilled water immediately prior to addition to cultures. Rat cortical neurons were exposed to β-amyloid peptide by removing the culture medium and replacing it with DMEM/N2 (GIBCO Laboratories,Grand Island, N.Y., USA) containing 10 to 20 μM β-amyloid peptide. Human cortical neurons were exposed to test compound plus β-amyloid peptide by removing the culture medium and replacing it with MEM containing 50 μM β-amyloid peptide. Cultures were maintained for 2-3 days before neuronal survival was quantified using alamarBlue™.
(§3) The alamarBlue™ assay incorporates a fluorometric/colorimetric metabolic indicator (Alamar Biosciences, Inc. Sacramento, Calif., USA). Viable cells convert alamarBlue™ from an oxidized (non-fluorescent, blue) form to a reduced (fluorescent, red) form. Assays were preformed by replacing the culture media with a 10% alamarBlue™ solution in DMEM (rat cortical cultures) or MEM (human cortical cultures).

human cortical neurons = assay: Inhibition of toxicity of β-amyloid peptide to human neuronal cells (alamarBlue); assay type: cell-based; settings: 50 μM β-amyloid peptide, 2-3 days; on average where more than one duplicate experiment; compound concentration not stated
Experimental: as §1
Primary Human Cortical Cell Culture
Primary human cortical cultures were prepared using a modification of the procedure described by Seubert, et al.^21 Following filtration through Nitex nylon screens, cortical tissue was resuspended in a trypsin/EDTA solution (0.05% trypsin+0.53 mM EDTA in HBSS; GIBCO Laboratories, Grand Island, N.Y., USA) and kept at 37° C. for 20 minutes. The trypsin was then inactivated by resuspending the cells in serum-containing medium (MEM/FBS: Modified Eagles' Medium (MEM) containing 1% glucose, 1 mM sodium pyruvate, 1 mM glutamine, and supplemented with 10% fetal bovine serum (GIBCO). Cells were then pelleted by centrifugation and resuspended in a chemically-defined medium (MEM/B27: MEM containing B27 supplement in place of FBS; GIBCO). Polyethyleneimine (PEI; Sigma Chemical Company, St. Louis, Mo., USA)-coated 6.4 mm (96-well) dishes were rinsed once with MEM/FBS, and then seeded at 0.75 to 1.25×10^5 cells per well in 0.1 mL MEM/B27. Cultures were maintained in a H2 O-saturated incubator with an atmosphere of 95% air/5% CO 2 at 37° C. The culture medium was exchanged twice weekly. Cell viability was visually assessed by phase contrast microscopy and quantified by measuring the reduction of alamarBlue™ (Alamar Biosciences, Inc., Sacramento, Calif., USA).
as §2, §3

293 751 SWE cells = assay: Cytotoxicity (MTT) in 293 751 SWE cells; assay type: cell-based, human; settings: concentration not given
Experimental: (§4) This screening assay employed cells (K293=human kidney cell line) which were stably transfected with the gene for amyloid precursor protein 751 (APP751) containing the double mutation Lys651 Met652 to Asn651 Leu652 (APP751 numbering) in the manner described in International Patent Application Publication No. 94/10569^1 and Citron et al.^16. This mutation is commonly called the Swedish mutation and the cells, designated as "293 751 SWE", were plated in Coming 96-well plates at 1.5-2.5×10^4 cells per well in Dulbecco's minimal essential media plus 10% fetal bovine serum. Cell number is important in order to achieve β-amyloid ELISA results within the linear range of the assay (~0.2 to 2.5 ng per mL).
Cytotoxic effects of the compounds were measured by a modification of the method of Hansen, et al.^17. To the cells remaining in the tissue culture plate was added 25 μL of a 3,(4,5-dimethylthiazol-2-yl)2,5-diphenyltetrazolium bromide (MTT) stock solution (5 mg/mL) to a final concentration of 1 mg/mL. Cells were incubated at 37° C. for one hour, and cellular activity was stopped by the addition of an equal volume of MTT lysis buffer (20% w/v sodium dodecylsulfate in 50% dimethylformamide, pH 4.7). Complete extraction was achieved by overnight shaking at room temperature. The difference in the OD562nm and the OD650nm was measured in a Molecular Device's UVmax microplate reader as an indicator of the cellular viability.

[1] = system: β-amyloid peptide production; assay: Cellular screen for inhibitors of β-amyloid production (ELISA, 293 751 SWE cells); assay type: cell-based, human; settings: 2 h pretreatment + 2 h, normalized for cytotoxicity (MTT), concentration not given
Experimental: as §4
Following overnight incubation at 37° C. in an incubator equilibrated with 10% carbon dioxide, media were removed and replaced with 200 μL of a substituted 3-indolyl-5-pyrazolone (drug) containing media per well for a two hour pretreatment period and cells were incubated as above.
At the end of the pretreatment period, the media were again removed and replaced with fresh drag containing media as above and cells were incubated for an additional two hours. After treatment, plates were centrifuged in a Beckman GPR at 1200 rpm for five minutes at room temperature to pellet cellular debris from the conditioned media. From each well, 100 μL of conditioned media or appropriate dilutions thereof were transferred into an ELISA plate precoated with antibody 266 against amino acids 13-28 of β-amyloid peptide as described in International Patent Application Publication No. 94/10569^1 and stored at 4° C. overnight. An ELISA assay employing labelled antibody 6C6 against amino acids 1-16 of β-amyloid peptide was run the next day to measure the amount of β-amyloid peptide produced.
The results of the β-amyloid peptide ELISA were fit to a standard curve and expressed as ng/mL β-amyloid peptide. […] All results are the mean and standard deviation of at least six replicate assays.

Row | SMILES | inhibition of the toxicity of β-amyloid peptide to rat neuronal cells (rat cortical neurons) | inhibition of the toxicity of β-amyloid peptide to human neuronal cells (human cortical neurons) | cytotoxic effect on the 293 751 SWE cells (293 751 SWE cells) | reduction of β-amyloid peptide production as compared to control [1]
1 | O=C1CC(Cc2cn(C(=O)c3ccc(Cl)cc3)c3ccccc23)=NN1 [A, 3-[1-(4-chlorobenzoyl)-3-indolylmethyl]-5-pyrazolone] | at least 10% | at least 25% | – | –
2 | O=C1CC(CCc2c[nH]c3ccccc23)=NN1C1CCCCC1 [D, 3-[3-indolylethyl]-1-cyclohexyl-5-pyrazolone] | < 10% | at least 25% | – | –
3 | COc1ccc2c(c1)c(CC1=NN(c3ccccc3C)C(=O)C1)c(C)n2C(=O)c1ccc(Cl)cc1 [E] | at least 10% | at least 25% | – | –
4 | COc1ccc2c(c1)c(CC1=NN(C3CCC3)C(=O)C1)c(C)n2C(=O)c1ccc(Cl)cc1 [Example 10, 3-[1-(4-chlorobenzoyl)-5-methoxy-2-methyl-3-indolylmethyl]-1-cyclobutyl-5-pyrazolone] | – | at least 25% | – | –
5 | O=C1CC(Cc2c[nH]c3ccccc23)=NN1C1CCCCC1 [Example 18, 3-(3-indolylmethyl)-1-cyclohexyl-5-pyrazolone] | < 10% | at least 25% | – | –
6 | O=C1CC(Cc2cn(C(=O)c3ccc(Cl)cc3)c3ccccc23)=NN1C1CCCCC1 [Example 19, 3-[1-(4-chlorobenzoyl)-3-indolylmethyl]-1-cyclohexyl-5-pyrazolone] | – | at least 25% | did not have a significant cytotoxic effect | at least 20%
7 | COc1ccc2c(c1)c(CC1=NN(c3cccc(C)c3)C(=O)C1)c(C)n2C(=O)c1ccc(Cl)cc1 [Example 31, 3-[1-(4-chlorobenzoyl)-5-methoxy-2-methyl-3-indolylmethyl]-1-(3-methylphenyl)-5-pyrazolone] | – | at least 25% | did not have a significant cytotoxic effect | at least 20%
8 | COc1ccc2c(c1)c(CC1=NN(c3cccc(F)c3)C(=O)C1)c(C)n2C(=O)c1ccc(Cl)cc1 [Example 32, 3-[1-(4-chlorobenzoyl)-5-methoxy-2-methyl-3-indolylmethyl]-1-(3-fluorophenyl)-5-pyrazolone] | – | at least 25% | did not have a significant cytotoxic effect | at least 20%
9 | COc1ccc2c(c1)c(CC1=NN(c3cccc(N)c3)C(=O)C1)c(C)n2C(=O)c1ccc(Cl)cc1 [Example 40, 3-[1-(4-chlorobenzoyl)-5-methoxy-2-methyl-3-indolylmethyl]-1-(3-aminophenyl)-5-pyrazolone] | – | at least 25% | – | < 20%
10 | COc1ccc2c(c1)c(CC1=NN(C3CCCCC3)C(=O)C1=Cc1ccccc1)c(C)n2C(=O)c1ccc(Cl)cc1 [Example 45, 3-[1-(4-chlorobenzoyl)-5-methoxy-2-methyl-3-indolylmethyl]-1-cyclohexyl-4-benzylidene-5-pyrazolone] | – | < 25% | – | < 20%
11 | COc1ccc(C(=O)n2c(C)c(CC3=NN(c4cccc(C(F)(F)F)c4)C(=O)C3)c3cc(OC)ccc32)cc1 [Example 58, 3-[1-(4-methoxybenzoyl)-5-methoxy-2-methyl-3-indolylmethyl]-1-(3-trifluoromethylphenyl)-5-pyrazolone] | – | – | did not have a significant cytotoxic effect | at least 20%
12 | CCCC(=O)n1c(C)c(CC2=NN(C3CCCCC3)C(=O)C2)c2cc(OC)ccc21 [Example 60, 3-[1-butanoyl-5-methoxy-2-methyl-3-indolylmethyl]-1-cyclohexyl-5-pyrazolon] | – | – | did not have a significant cytotoxic effect | at least 20%
13 | Cc1c(CC2=NN(C3CCCCC3)C(=O)C2)c2cc(Cl)ccc2n1C(=O)c1ccc(Cl)cc1 [Example 62, 3-[1-chlorobenzoyl-5-chloro-2-methyl-3-indolylmethyl]-1-cyclohexyl-5-pyrazolone] | – | – | did not have a significant cytotoxic effect | at least 20%
14 | Cc1c(CC2=NN(c3cccc(C(F)(F)F)c3)C(=O)C2)c2cc(Cl)ccc2n1C(=O)c1ccc(Cl)cc1 [Example 63, 3-[1-(4-chlorobenzoyl)-5-chloro-2-methyl-3-indolylmethyl]-1-(3-trifluoromethylphenyl)-5-pyrazolone] | – | – | did not have a significant cytotoxic effect | at least 20%
